Results published in US9499550B2 (BRISTOL-MYERS SQUIBB COMPANY, priority 2012, dated 2016).
Where two headings read alike, the source gives them in different places.

Tests used:
[1] = tested on: HCV genotype 1a (H77 strain) replicon in HUH-7 cells; test: HCV replicon luciferase reporter assay, genotype 1a; type: cell-based; details: Hepatitis C virus, Huh-7, 72 h, HCV genotype 1a replicon luciferase, 3 days incubation
Summary of the method: (§1)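 Replicon inhibition for both genotypes was measured as Renilla luciferase signal (EnduRen, 7.5 μM final, 2 h) after 3-day, 37° C exposure of replicon-bearing HUH-7 cells in 4% FCS DMEM, 0.5% DMSO. The 1b construct carries S1179I; the 1a H77 construct carries P1496L and S2204I. Twenty-point, 3-fold dilutions were fitted four-parametrically for EC50, and CC50 was taken from multiplexed Cell Titer-Blue.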

[2] = tested on: HCV genotype 1b (Con1) replicon in HUH-7 cells; test: HCV replicon luciferase reporter assay, genotype 1b; type: cell-based; details: Hepatitis C virus, Huh-7, 72 h, HCV genotype 1b replicon luciferase, 3 days incubation
Summary of the method: as §1

Row | SMILES | EC50 ([1]; read-out: LE_1a (EC50)) [nM] | EC50 ([1]; read-out: LE_1a (EC50, range)) [nM] | EC50 ([2]; read-out: LE_1b (EC50)) [nM] | EC50 ([2]; read-out: LE_1b (EC50, range)) [nM] | EC50 ([1]; GETYPE1A, read-out: LE_1a (EC50, range)) [nM] | EC50 ([2]; GETYPE1B, read-out: LE_1b (EC50, range)) [nM]
1 | [2H]C([2H])([2H])C(OC(=O)N[C@@H]1C(=O)N2C[C@H](Oc3nnc(OC)c4ccccc34)C[C@H]2C(=O)N[C@]2(C(=O)NS(=O)(=O)C3(C)CC3)C[C@H]2/C=C\CC[C@H](C)C[C@H]1CC)(C([2H])([2H])[2H])C(F)(F)F [Compound 5019] | 7.27 | 4.82 to 103 | 3.65 | < 5.46 | – | –
2 | [2H]C([2H])([2H])C(OC(=O)N[C@@H]1C(=O)N2C[C@H](Oc3nnc(OC)c4ccccc34)C[C@H]2C(=O)N[C@]2(C(=O)NS(=O)(=O)C3(C)CC3)C[C@H]2/C=C\CC[C@@H](C)C[C@H]1CC)(C([2H])([2H])[2H])C(F)(F)F [Compound 5020] | – | < 5.46 | – | < 5.46 | – | –
3 | [2H]C([2H])([2H])C(C)(OC(=O)N[C@@H]1C(=O)N2C[C@H](Oc3nnc(OC)c4ccccc34)C[C@H]2C(=O)N[C@]2(C(=O)NS(=O)(=O)C3(C)CC3)C[C@H]2/C=C\CC[C@H](C)C[C@H]1CC)C([2H])([2H])[2H] [Compound 5021] | – | 4.82 to 103 | – | < 5.46 | – | –
4 | [2H]C([2H])([2H])C(C)(OC(=O)N[C@@H]1C(=O)N2C[C@H](Oc3nnc(OC)c4ccccc34)C[C@H]2C(=O)N[C@]2(C(=O)NS(=O)(=O)C3(C)CC3)C[C@H]2/C=C\CC[C@@H](C)C[C@H]1CC)C([2H])([2H])[2H] [Compound 5022] | – | < 5.46 | – | < 5.46 | – | –
5 | CC[C@@H]1C[C@@H](C)CC/C=C\[C@@H]2C[C@@]2(C(=O)NS(=O)(=O)C2(C)CC2)NC(=O)[C@@H]2C[C@@H](Oc3nnc(OC)c4ccccc34)CN2C(=O)[C@H]1NC(=O)NC(C)(C)C [Compound 5023, (2R,6S,7R,9S,13aS,14aR,16aS,Z)-6-(3-(tert-butyl)ureido)-7-ethyl-2-((4-methoxyphthalazin-1-yl)oxy)-9-methyl-N-((1-methylcyclopropyl)sulfonyl)-5,16-dioxo-1,2,3,5,6,7,8,9,10,11,13a,14,14a,15,16,16a-hexadecahydrocyclopropa[e]pyrrolo[1,2-a][1,4]diazacyclopentadecine-14a-carboxamide] | 16 | 4.82 to 103 | 24.6 | 4.82 to 103 | – | –
6 | CC[C@@H]1C[C@H](C)CC/C=C\[C@@H]2C[C@@]2(C(=O)NS(=O)(=O)C2(C)CC2)NC(=O)[C@@H]2C[C@@H](Oc3nnc(OC)c4ccccc34)CN2C(=O)[C@H]1NC(=O)NC(C)(C)C [Compound 5024, (2R,6S,7R,9R,13aS,14aR,16aS,Z)-6-(3-(tert-butyl)ureido)-7-ethyl-2-((4-methoxyphthalazin-1-yl)oxy)-9-methyl-N-((1-methylcyclopropyl)sulfonyl)-5,16-dioxo-1,2,3,5,6,7,8,9,10,11,13a,14,14a,15,16,16a-hexadecahydrocyclopropa[e]pyrrolo[1,2-a][1,4]diazacyclopentadecine-14a-carboxamide] | – | < 5.46 | – | < 5.46 | – | –
7 | CC[C@@H]1C[C@@H](C)CC/C=C\[C@@H]2C[C@@]2(C(=O)NS(=O)(=O)C2(C)CC2)NC(=O)[C@@H]2C[C@@H](Oc3nnc(OC)c4ccccc34)CN2C(=O)[C@H]1NC(=O)OC(C)(C)C [Compound 5025, tert-butyl ((2R,6S,7R,9S,13aS,14aR,16aS,Z)-7-ethyl-2-((4-methoxyphthalazin-1-yl)oxy)-9-methyl-14a-(((1-methylcyclopropyl)sulfonyl)carbamoyl)-5,16-dioxo-1,2,3,5,6,7,8,9,10,11,13a,14,14a,15,16,16a-hexadecahydrocyclopropa[e]pyrrolo[1,2-a][1,4]diazacyclopentadecin-6-yl)carbamate] | – | 4.82 to 103 | – | < 5.46 | – | –
8 | CC[C@@H]1C[C@H](C)CC/C=C\[C@@H]2C[C@@]2(C(=O)NS(=O)(=O)C2(C)CC2)NC(=O)[C@@H]2C[C@@H](Oc3nnc(OC)c4ccccc34)CN2C(=O)[C@H]1NC(=O)OC(C)(C)C [Compound 5026, tert-butyl ((2R,6S,7R,9R,13aS,14aR,16aS,Z)-7-ethyl-2-((4-methoxyphthalazin-1-yl)oxy)-9-methyl-14a-(((1-methylcyclopropyl)sulfonyl)carbamoyl)-5,16-dioxo-1,2,3,5,6,7,8,9,10,11,13a,14,14a,15,16,16a-hexadecahydrocyclopropa[e]pyrrolo[1,2-a][1,4]diazacyclopentadecin-6-yl)carbamate] | – | < 5.46 | – | < 5.46 | – | –
9 | COc1nnc(O[C@@H]2C[C@H]3C(=O)N[C@]4(C(=O)NS(=O)(=O)C5(CF)CC5)C[C@H]4/C=C\CC[C@@H](C)C[C@@H](C)[C@H](NC(=O)OC(C)(C)C(F)(F)F)C(=O)N3C2)c2ccccc12 [Compound 5027] | – | – | – | – | < 5.46 | < 5.46
10 | CCOc1nnc(O[C@@H]2C[C@H]3C(=O)N[C@]4(C(=O)NS(=O)(=O)C5(C)CC5)C[C@H]4/C=C\CC[C@H](C)C[C@@H](C)[C@H](NC(=O)OC(C)(C)C)C(=O)N3C2)c2ccccc12 [Compound 5028, tert-butyl ((2R,6S,7R,9S,13aS,14aR,16aS,Z)-2-((4-ethoxyphthalazine-1-yl)oxy)-7,9-dimethyl-14a-(((1-methylcyclopropyl)sulfonyl)carbamoyl)-5,16-dioxo-1,2,3,5,6,7,8,9,10,11,13a,14,14a,15,16,16a-hexadecahydrocyclopropa[e]pyrrolo[1,2-a][1,4]diazacyclopentadecin-6-yl)carbamate] | 6.28 | 4.82 to 103 | 2.96 | < 5.46 | – | –
11 | CCOc1nnc(O[C@@H]2C[C@H]3C(=O)N[C@]4(C(=O)NS(=O)(=O)C5(C)CC5)C[C@H]4/C=C\CC[C@@H](C)C[C@@H](C)[C@H](NC(=O)OC(C)(C)C)C(=O)N3C2)c2ccccc12 [Compound 5029, tert-butyl ((2R,6S,7R,9R,13aS,14aR,16aS,Z)-2-((4-ethoxyphthalazin-1-yl)oxy)-7,9-dimethyl-14a-(((1-methylcyclopropyl)sulfonyl)carbamoyl)-5,16-dioxo-1,2,3,5,6,7,8,9,10,11,13a,14,14a,15,16,16a-hexadecahydrocyclopropa[e]pyrrolo[1,2-a][1,4]diazacyclopentadecin-6-yl)carbamate] | – | < 5.46 | – | < 5.46 | – | –
12 | CCOc1nnc(O[C@@H]2C[C@H]3C(=O)N[C@]4(C(=O)NS(=O)(=O)C5(C)CC5)C[C@H]4/C=C\CC[C@H](C)C[C@@H](C)[C@H](NC(=O)OC(C)(C)C(F)(F)F)C(=O)N3C2)c2ccccc12 [Compound 5030, 1,1,1-trifluoro-2-methylpropan-2-yl((2R,6S,7R,9S,13aS,14aR,16aS,Z)-2-((4-ethoxyphthalazin-1-yl)oxy)-7,9-dimethyl-14a-(((1-methylcyclopropyl)sulfonyl)carbamoyl)-5,16-dioxo-1,2,3,5,6,7,8,9,10,11,13a,14,14a,15,16,16a-hexadecahydrocyclopropa[e]pyrrolo[1,2-a][1,4]diazacyclopentadecin-6-yl)carbamate] | – | 4.82 to 103 | – | 4.82 to 103 | – | –
13 | CCOc1nnc(O[C@@H]2C[C@H]3C(=O)N[C@]4(C(=O)NS(=O)(=O)C5(C)CC5)C[C@H]4/C=C\CC[C@@H](C)C[C@@H](C)[C@H](NC(=O)OC(C)(C)C(F)(F)F)C(=O)N3C2)c2ccccc12 [Compound 5031, 1,1,1-trifluoro-2-methylpropan-2-yl((2R,6S,7R,9R,13aS,14aR,16aS,Z)-2-((4-ethoxyphthalazin-1-yl)oxy)-7,9-dimethyl-14a-(((1-methylcyclopropyl)sulfonyl)carbamoyl)-5,16-dioxo-1,2,3,5,6,7,8,9,10,11,13a,14,14a,15,16,16a-hexadecahydrocyclopropa[e]pyrrolo[1,2-a][1,4]diazacyclopentadecin-6-yl)carbamate] | – | < 5.46 | – | < 5.46 | – | –
